Patent US4272538A, “5-Nitro-imidazole with antiprotozoic activity” (Rotta Research Laboratorium S.p.A., priority 1978, dated 1981)
Values after ≈ are worked out from the molar mass of the structure shown.

Experiments:
Trichomonas Vaginalis = assay: Systemic activity in mice infected subcutaneously with Trichomonas Vaginalis; type: in vivo; details: for ED84: Trichomonas vaginalis, 168 h, oral, twice a day over 5 days, dose preventing infection in 84% of animals, (S)/(NS) = significance of regression line, read-out: ED84, anti-trichomonas activity in mice; for Index of relative activity calc. on ED84 (vs metronidazole), mice: relative to metronidazole = 1; for anti-trichomonas activity in vivo in mice: Table 2
Protocol: (B1) Systematic activity in mice infected subcutaneously with Trichomonas Vaginalis Female Charles River mice of about 20 grams weight are used and injected subcutaneously with 1 ml of a physiological solution containing 10^6 cells of Trichomonas Vaginalis (evaluated by means of counting in a Burker chamber), resulting from a 24 hour culture in Trichosel BBL substrate containing 15% in weight/volume of deactivated horse serum. Abscesses are thus developed in the place of infection which may burst open externally, piercing the skin. To establish the activity of a product, groups of 10 animals per tested dose are used, and on the 7th day the presence or absence of abscesses are determined (evaluated in terms of all or nothing). The compounds are administered orally, dissolved or in suspension in water, over 5 days, twice a day, the treatment being started 30 minutes after infection. The results obtained are recorded in Table 2 which gives the ED84 in mg/kg for oral administration, that is the dose of the drug capable of preventing the formation of the infection in 84% of the infected animals.

[1] = system: Salmonella Typhimurium TA 100; assay: Ames mutagenesis test with metabolic activation; type: cell-based; details: for Revertants/plate (max value): 15.62 to 1000 μg/plate, control background about 100 revertants per plate; for Index of relative mutagenic power (Compound/Metronidazole): relative to metronidazole = 1
Protocol: Mutagenesis test with metabolic activation on histidine (-) strains of Salmonella Typhimurium by the Ames method
The capacity for reversing the histidine (-) mutation which is peculiar to the TA 100 strain was measured, this strain being recommended for chemio-therapeutic screening in that it has a resistance factor R; TA 100 is a carrier of a mutation caused by the substitution of a pair of bases. The method used is that described by Ames et al. (Mutation Res. 31, (1975), 347-364).

Entamoeba Histolytica [2] = assay: In vitro activity (M.I.C.) against Entamoeba Histolytica; type: cell-based; details: average ± S.E., 5 tests, 48 hours at 37° C., Pavlova substrate, read-out: minimum inhibiting concentration (M.I.C.), E. Histolytica
Protocol: (§1) The method of evaluation of the activity of the compounds of the invention "in vitro" consists of introducing various quantities of the substance to be tested, into a culture medium previously inoculated with a predetermined number of test germs.
(§2) After 48 hours of incubation at 37° C. it is possible to evaluate the growth of the micro-organism in the culture broth; thus the minimum concentration (M.I.C.) which inhibits the growth of the microorganisms "in vitro" is determined.
(A2) Entamoeba Histolytica
The stock is kept vital by transfer every 48 hours at 37° C. into slants containing a bi-phase medium composed of 5 ml of coagulated horse serum and […] of Pavlova substrate containing 15% in weight/volume of deactivated horse serum. The Pavlova substrate is described for example in Ann. Trop. Med. Parasitology, Vol. 40, p. 130 (1946).
The measurement of the M.I.C. is carried out in test tubes containing 0.5 ml of coagulated horse serum and the liquid phase of the Pavlova substrate containing 5% in weight/volume of horse serum, previously inoculated in the proportion of about 10,000 cells per ml of substrate.
The evaluation is microscopic, the presence or lack of live cells in the culture medium being observed.

[3] = Acute oral toxicity in mice; details: mouse, in vivo, within 14 days
Protocol: The acute oral toxicity of the compounds according to the invention was also determined in mice and compared with that of other nitro-imidazole compounds used previously as control standards.
For every dose tested, the substance was administered orally to groups of 10 female CF1 mice, having an average weight of about 20 grams, in an aqueous suspension containing 10% of gum arabic, the volume administered being 1 ml/100 grams of body weight. The LD50 was determined, that is, the dose expressed in mg/kg of body weight which induces the death of 50% of the animals treated within 14 days from administration.

[4] = system: Trichomonas Vaginalis ISM 66/22; assay: In vitro activity (M.I.C.) against Trichomonas Vaginalis; type: cell-based; details: for MIC: Trichomonas vaginalis, average ± S.E., 5 tests, 48 hours at 37° C., ISM 66/22, pH 6.0, read-out: minimum inhibiting concentration (M.I.C.), Trichomonas Vaginalis; for anti-protozoic activity in vitro: Table 1, also E. Histolytica
Protocol: as §1, §2
(A1) Trichomonas Vaginalis
The Trichomonas Vaginalis stocks are kept vital by transfer every 48 hours into Trichosel BBL substrate containing 15% in weight/volume of deactivated horse serum. The composition of the Trichosel BBL substrate is disclosed for example in Exp. Biol. and Med., Vol. 67, p. 304 (1948).
The inoculation was carried out in the proportion of 5% of the volume of the above substrate, to which has been added 5% in weight/volume of horse serum. The evaluation is macroscopic, the presence or lack of live cells in the culture medium being observed.
pH of the inoculated culture medium: 6.0.

Entamoeba Histolytica [5] = assay: Systemic activity on hepatic abscess from Entamoeba Histolytica in the hamster; type: in vivo; details: for ED84: Entamoeba histolytica, 72 h, oral, twice a day for four days, dose reducing abscess weight by 84% vs controls, (S)/(NS) = significance of regression line, read-out: ED84, anti-amoebic activity in the hamster; for Index of relative activity calc. on the ED84 (vs metronidazole), hamster: relative to metronidazole = 1
Protocol: (B2) Systemic activity on hepatic abscess from Entamoeba Histolytica in the hamster Golden hamsters of the strain RRL-805 of about 50 grams weight are used; after laparatomy, 0.05 ml of a suspension of amoebae (cellular density of about 10^6 amoebae/ml) is injected into the right hepatic lobe. Abscesses develop on the liver, the average weight of which is determined after killing of the animals 72 hours after the injection. The drugs under examination are administered orally twice a day for four days, the treatment being started the day before the infection. The evaluation is carried out by comparing the average weight of the hepatic abscesses developed in the group of animals treated with a drug with that of a control group. The results obtained are recorded in Table 3 which gives the ED84 in mg/kg administered orally, that is the dose of the drug capable of reducing the weight of the abscesses by 84% with respect to the controls. The values given were calculated from the regression line obtained from the results of a series of experiments, each compound being administered to at least 5 groups of six animals at generally different doses.

Structure (SMILES) | ED84 (Trichomonas Vaginalis) | Index of relative activity calc. on ED84 (vs metronidazole), mice (Trichomonas Vaginalis) | Revertants/plate (max value) [1] | Index of relative mutagenic power (Compound/Metronidazole) [1] | MIC (Entamoeba Histolytica [2]) | LD50 at 336 h [3] | MIC [4] | ED84 (Entamoeba Histolytica [5]) | Index of relative activity calc. on the ED84 (vs metronidazole), hamster (Entamoeba Histolytica [5]) | anti-trichomonas activity in vivo in mice (Trichomonas Vaginalis) | anti-protozoic activity in vitro [4] | anti-amoebic activity in hamster (Entamoeba Histolytica [5]; Table 3) | activity compared with metronidazole (times) (Entamoeba Histolytica [5]; hamster hepatic abscess, Table 3)
CN1CCN(CCCn2cncc2[N+](=O)[O-])CC1 [Example 1, 1-methyl-4-[3-(5-nitro-1-H-imidazol-1-yl)-propyl]-piperazine] | 69.4 mg/kg | 0.41 | 780 Revertants/plate | 0.17 | 51.2 ± 43.1 µg/mL (≈ 202 µM) | 810 mg/kg | 6.3 ± 1.37 µg/mL (≈ 24.9 µM) | 86.3 mg/kg | 1.2 | – | – | – | –
CCN1CCN(CCCn2cncc2[N+](=O)[O-])CC1 [Example 2, 1-ethyl-4-[3-(5-nitro-1-H-imidazol-1-yl)-propyl]-piperazine] | 66 mg/kg | 0.43 | – | – | 60.1 ± 14.2 µg/mL (≈ 225 µM) | 900 mg/kg | 5.8 ± 1.12 µg/mL (≈ 21.7 µM) | – | – | – | – | – | –
CCOC(=O)N1CCN(CCCn2cncc2[N+](=O)[O-])CC1 [Example 3, 1-carboxyethyl-4-[3-(5-nitro-1-H-imidazol-1-yl)-propyl]-piperazine] | 170 mg/kg | 0.16 | 1400 Revertants/plate | 0.31 | 53.1 ± 11.5 µg/mL (≈ 171 µM) | 2430 mg/kg | 0.56 ± 0.1 µg/mL (≈ 1.8 µM) | 84.7 mg/kg | 1.2 | the activity is reduced | very active in vitro | – | –
CN1CCN(CCn2cncc2[N+](=O)[O-])CC1 [Example 4, 1-methyl-4-[2-(5-nitro-1-H-imidazol-1-yl)-ethyl]-piperazine] | 77.5 mg/kg | 0.37 | 780 Revertants/plate | 0.17 | 63.1 ± 14.2 µg/mL (≈ 264 µM) | 880 mg/kg | 7.9 ± 1.37 µg/mL (≈ 33 µM) | 108 mg/kg | 1 | – | – | – | –
CCOC(=O)N1CCN(CCn2cncc2[N+](=O)[O-])CC1 [Example 5, 1-carboxyethyl-4-[2-(5-nitro-1-H-imidazol-1-yl)-ethyl]-piperazine] | – | – | – | – | 66.1 ± 16 µg/mL (≈ 222 µM) | 2310 mg/kg | 2.4 ± 0.7 µg/mL (≈ 8.07 µM) | – | – | – | – | – | –
Cc1ncc([N+](=O)[O-])n1CCCN1CCN(C)CC1 [Example 6, 1-methyl-4-[3-(2-methyl-5-nitro-1-H-imidazol-1-yl)-propyl]-piperazine] | 41.2 mg/kg | 0.69 | 510 Revertants/plate | 0.11 | 22 ± 8.5 µg/mL (≈ 82.3 µM) | 1630 mg/kg | 3.2 ± 0.82 µg/mL (≈ 12 µM) | 54.2 mg/kg | 2 | – | – | the greatest activity in this test | about twice
COC(=O)N1CCN(CCCn2c([N+](=O)[O-])cnc2C)CC1 [Example 7] | – | – | – | – | 45 ± 11.5 µg/mL (≈ 145 µM) | 2420 mg/kg | 2.2 ± 0.85 µg/mL (≈ 7.07 µM) | – | – | – | – | – | –
CCOC(=O)N1CCN(CCCn2c([N+](=O)[O-])cnc2C)CC1 [Example 8, 1-carboxyethyl-4-[3-(2-methyl-5-nitro-1-H-imidazol-1-yl)-propyl]-piperazine] | 150 mg/kg | 0.19 | 1140 Revertants/plate | 0.25 | 40.1 ± 10.8 µg/mL (≈ 123 µM) | 2630 mg/kg | 0.7 ± 0.13 µg/mL (≈ 2.15 µM) | 75.5 mg/kg | 1.4 | the activity is reduced | very active in vitro | – | –
CCc1ncc([N+](=O)[O-])n1CCCN1CCN(C)CC1 [Example 10, 1-methyl-4-[3-(2-ethyl-5-nitro-1-H-imidazol-1-yl)-propyl]-piperazine] | 30.7 mg/kg | 0.93 | – | – | 26 ± 10.4 µg/mL (≈ 92.4 µM) | 1960 mg/kg | 2.7 ± 0.85 µg/mL (≈ 9.6 µM) | – | – | – | – | – | –
CN1CCN(CCCn2c([N+](=O)[O-])cnc2-c2ccccc2)CC1 [Example 11, 1-methyl-4-[3-(2-phenyl-5-nitro-1-H-imidazol-1-yl)-propyl]-piperazine] | 48 mg/kg | 0.59 | – | – | 39 ± 12.6 µg/mL (≈ 118 µM) | 1680 mg/kg | 5.6 ± 1.28 µg/mL (≈ 17 µM) | 130 mg/kg | 0.8 | – | – | – | –
CN1CCN(CCn2c([N+](=O)[O-])cnc2-c2ccccc2)CC1 [Example 12, 1-methyl-4-[2-(2-phenyl-5-nitro-1-H-imidazol-1-yl)-ethyl]-piperazine] | – | – | 750 Revertants/plate | 0.16 | 43 ± 9.8 µg/mL (≈ 136 µM) | 3320 mg/kg | 8.1 ± 2.1 µg/mL (≈ 25.7 µM) | – | – | – | – | – | –
O=C1NCCN1c1ncc([N+](=O)[O-])s1 [NIRIDAZOLE, reference compound] | – | – | – | – | 28 ± 9.6 µg/mL (≈ 131 µM) | – | 1.22 ± 0.411 µg/mL (≈ 5.7 µM) | – | – | – | – | – | –
